Measurements from ChEMBL document CHEMBL3714766, “Tetrahydroisoquinoline compounds and their use as pyruvate dehydrogenase kinase inhibitors” (2015).

Assays:
[1] = biological target: T1, Pyruvate dehydrogenase kinase (Homo sapiens, UniProt Q15119+Q15120+Q16654+Q15118); assay: Binding affinity to pyruvate dehydrogenase kinase (unknown origin) by VER-00160364 probe based fluorescence polarization assay
[2] = biological target: T1, Pyruvate dehydrogenase kinase; assay: Inhibition of pyruvate dehydrogenase kinase in human PC3 cells incubated for 90 mins by phospho(Ser293)E1alpha MSP ELISA method; assay type: cell-based; details: pc-3
[3] = biological target: T1, Pyruvate dehydrogenase kinase; assay: Inhibition of pyruvate dehydrogenase kinase (unknown origin) assessed as reduction in E1 phosphorylation incubated for 1 hr by DELFIA method; assay type: protein assay

IC50 [1] [nM] | IC50 [2] [nM] | IC50 [3] [nM] | Compound
10 | 1000 | – | C[C@H]1CCc2cc(-c3ncnc4cccc(F)c34)ccc2N1C(=O)c1ccc(O)cc1O
100 | 1000 | – | C[C@H]1CCc2cc(C(=O)N(C)Cc3cccc4ccccc34)ccc2N1C(=O)c1ccc(O)cc1O
10 | 1000 | – | Cc1cnc(Cl)nc1-c1ccc2c(c1)CC[C@H](C)N2C(=O)c1cc(F)c(O)cc1O
100 | 1000 | – | C[C@H]1CCc2cc(C(=O)N(C)Cc3ccc4ccccc4n3)ccc2N1C(=O)c1ccc(O)cc1O
10 | 10000 | – | C[C@H]1CCc2cc(C(=O)N(C)Cc3cccs3)ccc2N1C(=O)c1ccc(O)cc1O
100 | 1000 | – | C[C@H]1CCc2cc(-c3ncnc4ccsc34)ccc2N1C(=O)c1ccc(O)cc1O
10 | 1000 | – | Cc1cc(S(=O)(=O)NCc2ccncc2)cnc1-c1ccc2c(c1)CC[C@H](C)N2C(=O)c1ccc(O)cc1O
100 | 1000 | – | Cc1nc(C(F)(F)F)nc(-c2ccc3c(c2)CC[C@H](C)N3C(=O)c2ccc(O)cc2O)c1C
100 | 1000 | – | O=C(c1ccc(O)cc1O)N1c2ccc(-c3nc(Cl)nc4[nH]ccc34)cc2CCC1c1cccnc1 (stereo not given)
10 | 1000 | – | C[C@H]1CCc2cc(C(=O)N(C)Cc3cccc4cnccc34)ccc2N1C(=O)c1ccc(O)cc1O
1000 | 1000 | – | C[C@H]1CCc2cc(-c3nc(Cl)nc4c3ccn4C)ccc2N1C(=O)c1ccc(O)cc1O
1000 | 1000 | – | C[C@H]1CCc2cc(-c3nc(Cl)nc4ccsc34)ccc2N1C(=O)c1ccc(O)cc1O
– | – | 10 | Cc1cc(S(=O)(=O)N2CCC(F)(F)CC2)cnc1-c1ccc2c(c1)CCC(c1cccnc1)N2C(=O)c1ccc(O)cc1O (stereo not given)
– | – | 10 | Cc1cc(S(=O)(=O)N2CC(F)(F)C2)cnc1-c1ccc2c(c1)CCC(c1cccnc1)N2C(=O)c1ccc(O)cc1O (stereo not given)
100 | 10000 | – | Cc1sc2ncnc(-c3ccc4c(c3)CC[C@H](C)N4C(=O)c3ccc(O)cc3O)c2c1C
– | – | 10 | Cc1cc(S(=O)(=O)NCc2ccccc2)cnc1-c1ccc2c(c1)CCC(c1cccnc1)N2C(=O)c1ccc(O)cc1O (stereo not given)
100 | 1000 | – | COc1ccc(CN(C)C(=O)c2ccc3c(c2)CC[C@H](C)N3C(=O)c2ccc(O)cc2O)cc1
100 | 10000 | – | COCCNS(=O)(=O)c1cnc(-c2ccc3c(c2)CC[C@H](C)N3C(=O)c2ccc(O)cc2O)c(C)c1
1000 | 1000 | – | C[C@H]1CCc2cc(-c3nc(Cl)nc4[nH]ccc34)ccc2N1C(=O)c1ccc(O)cc1O
100 | 1000 | – | CCNc1ccc(-c2ccc3c(c2)CC[C@H](C)N3C(=O)c2ccc(O)cc2O)c(C)n1
– | 1000 | 100 | Cc1cnc(Cl)nc1-c1ccc2c(c1)CC[C@H](c1cccnc1)N2C(=O)c1ccc(O)cc1O
100 | 1000 | – | C[C@H]1CCc2cc(-c3ccnc4ccccc34)ccc2N1C(=O)c1ccc(O)cc1O
100 | 1000 | – | Cc1cnc(Cl)nc1-c1ccc2c(c1)CCC(C)N2C(=O)c1cc(Cl)c(O)cc1O (stereo not given)

IC50 [1] [nM] | IC50 [2] [nM] | IC50 [3] [nM] | Compound
100 | 1000 | – | COCCOc1ncc(C)c(-c2ccc3c(c2)CC[C@H](C)N3C(=O)c2ccc(O)cc2O)n1
100 | 1000 | – | Cc1csc2ncnc(-c3ccc4c(c3)CC[C@H](C)N4C(=O)c3ccc(O)cc3O)c12
– | 1000 | 100 | COc1cnc(Cl)nc1-c1ccc2c(c1)CC[C@H](c1cccnc1)N2C(=O)c1cc(Cl)c(O)cc1O
10 | 1000 | – | Cc1cc(N)cnc1-c1ccc2c(c1)CC[C@H](C)N2C(=O)c1ccc(O)cc1O
– | – | 10 | O=C(c1ccc(O)cc1O)N1c2ccc(-c3ncnc4cccc(F)c34)cc2CCC1c1cccnc1 (stereo not given)
1000 | 1000 | – | CSc1nc(-c2ccc3c(c2)CC[C@H](C)N3C(=O)c2ccc(O)cc2O)c2cc[nH]c2n1
– | – | 100 | O=C(c1ccc(O)cc1O)N1c2ccccc2CCC1C(F)(F)F (stereo not given)
10 | 1000 | – | C[C@H]1CCc2cc(C(=O)N(C)Cc3ccc4nccnc4c3)ccc2N1C(=O)c1ccc(O)cc1O
10 | 1000 | – | Cc1cc(S(=O)(=O)NCc2cccs2)cnc1-c1ccc2c(c1)CC[C@H](C)N2C(=O)c1ccc(O)cc1O
100 | 1000 | – | Cc1cc2ccccc2nc1-c1ccc2c(c1)CC[C@H](C)N2C(=O)c1ccc(O)cc1O
100 | 1000 | – | COc1cnc(Cl)nc1-c1ccc2c(c1)CC[C@H](C)N2C(=O)c1ccc(O)cc1O
100 | 1000 | – | Cc1cc(S(=O)(=O)NCC2CC2)cnc1-c1ccc2c(c1)CC[C@H](C)N2C(=O)c1ccc(O)cc1O
– | – | 100 | O=C(c1cc(Cl)c(O)cc1O)N1c2ccccc2CC[C@@H]1c1cccnc1
1000 | – | – | CCOc1ccc2nc(-c3ccc4c(c3)CC[C@H](C)N4C(=O)c3ccc(O)cc3O)c(C)cc2c1
100 | – | – | O=C(c1ccc(O)cc1O)N1c2ccccc2CCC1CNC(=O)C(F)(F)F (stereo not given)
10000 | – | – | O=C(O)c1ccc2c(c1)CCCN2C(=O)c1ccc(O)cc1O
1000 | – | – | Cc1cc2cc(Cl)ccc2nc1-c1ccc2c(c1)CC[C@H](C)N2C(=O)c1ccc(O)cc1O
10 | – | – | O=C(c1ccc(O)cc1O)N1c2ccc(-c3ncnc4[nH]ccc34)cc2CCC1c1cccnc1 (stereo not given)
100 | – | – | Cc1cc(-c2ccc3c(c2)CC[C@H](C)N3C(=O)c2ccc(O)cc2O)nnc1Cl
100 | – | – | CC1CCc2cc(C(=O)N(C)c3cccc(F)c3)ccc2N1C(=O)c1ccc(O)cc1O (stereo not given)
1000 | – | – | CCOC(=O)CN(C)C(=O)c1ccc2c(c1)CCCN2C(=O)c1ccc(O)cc1O
100 | – | – | Cc1cc(S(=O)(=O)NCc2ccn(C)n2)cnc1-c1ccc2c(c1)CC[C@H](C)N2C(=O)c1ccc(O)cc1O
